The test system of assay [1] is Hep 3B2. Kind of assay: Cytotoxicity against human Hep3B cells assessed as inhibition of cell proliferation incubated for 48 hrs by MTT assay. In kind it is functional, cell-based.
A further assay deals with HepG2. Kind of assay: Cytotoxicity against human HepG2 cells assessed as inhibition of cell proliferation incubated for 48 hrs by MTT assay. It is filed as functional, cell-based. The note with it: HepG2, 48 h. (In general: Tetrazolium assays rely on reduction of a dye to a coloured formazan, in cell work by metabolically active cells.)
Assay [2] relates to Hep 3B2. Kind of assay: Induction of apoptosis in human Hep3B cells assessed as early apoptotic cells at 3 uM incubated for 48 hrs by Annexin V-FITC/PI staining based flow cytometry analysis (reference value: 1.26%). It is filed as functional.
In assay [3] the test system is Hep 3B2. The assay can be described thus: Induction of apoptosis in human Hep3B cells assessed as necrotic cells at 3 uM incubated for 48 hrs by Annexin V-FITC/PI staining based flow cytometry analysis (reference value: 6.12%). It is filed as functional. In general terms: A flow cytometer gives signals particle by particle.
Assay [4] relates to Hep 3B2. The assay can be described thus: Induction of apoptosis in human Hep3B cells assessed as viable cells at 3 uM incubated for 48 hrs by Annexin V-FITC/PI staining based flow cytometry analysis (reference value: 87.1%). It is filed as functional. To be noted: read-out: Activity.
The subject of assay [5] is Hep 3B2. The assay can be described thus: Induction of apoptosis in human Hep3B cells assessed as late apoptotic cells at 3 uM incubated for 48 hrs by Annexin V-FITC/PI staining based flow cytometry analysis (reference value: […]%). In kind it is functional.
The subject of assay [6] is Hep 3B2. Kind of assay: Induction of apoptosis in human Hep3B cells assessed as necrotic cells at 3 uM incubated for 48 hrs by Annexin V-FITC/PI staining based flow cytometry analysis (reference value: 0%). It is filed as functional.
The test system of assay [7] is Hep 3B2. Kind of assay: Induction of apoptosis in human Hep3B cells assessed as viable cells at 3 uM incubated for 48 hrs by Annexin V-FITC/PI staining based flow cytometry analysis (reference value: 95.3%). In kind it is functional. The note with it: read-out: Activity.
Assay [8] has as its system Hep 3B2. The assay can be described thus: Induction of apoptosis in human Hep3B cells assessed as late apoptotic cells at 3 uM incubated for 48 hrs by Annexin V-FITC/PI staining based flow cytometry analysis (reference value: 0.117%). In kind it is functional.
Assay [9] concerns Hep 3B2. Kind of assay: Induction of apoptosis in human Hep3B cells assessed as early apoptotic cells at 3 uM incubated for 48 hrs by Annexin V-FITC/PI staining based flow cytometry analysis (reference value: 4.54%). In kind it is functional.

Turning to `COc1c(-c2ccc(O)c(O)c2)oc2c(CC=C(C)C)c(O)cc(O)c2c1=O`, the IC50 (in general, the midpoint of a concentration-inhibition curve) is 2.39 µM in the assay with Hep 3B2 [1] and above 50 µM in the assay with HepG2.

Take `CC(C)=CCc1cc([C@@H]2Oc3c(CC=C(C)C)c(O)cc(O)c3C(=O)[C@H]2O)cc(CC=C(C)C)c1O`: the IC50 with Hep 3B2 [1] and with HepG2 was above 50 µM in each case.

Turning to `COc1c(-c2cc(O)c3c(c2)CC(O)C(C)(C)O3)oc2c(CC=C(C)C)c(O)cc(O)c2c1=O` (centres undefined), the Activity is reported as 21.9% in the assay with Hep 3B2 [2], 2.34% in the assay with Hep 3B2 [3] and 52.4% in the assay on Hep 3B2 [5]. Further, the concentration for half-maximal inhibition (IC50) with Hep 3B2 [1] worked out at 0.63 µM; in the assay on HepG2 it was 49.1 µM. Further, the viability at 3 µM with Hep 3B2 [4] worked out at 23.3%.

For `CC1(C)Oc2ccc(-c3oc4cc(O)cc(O)c4c(=O)c3O)cc2CC1O` (centres undefined), the IC50 was 9.55 µM in the assay with Hep 3B2 [1] and above 50 µM in the assay on HepG2.

Take `CNC(=O)c1cc(Oc2ccc(NC(=O)Nc3ccc(Cl)c(C(F)(F)F)c3)cc2)ccn1` [SORAFENIB]: the IC50 in the assay on Hep 3B2 [1] is 8.55 µM.

For `C=C(C)C(O)Cc1cc(-c2oc3c(CC=C(C)C)c(O)cc(O)c3c(=O)c2OC)ccc1O` (centres undefined), the Activity in the assay on Hep 3B2 [2] is on record as 19.6%; in the assay with Hep 3B2 [3], 0.923%; in the assay on Hep 3B2 [5] it was 19.7%. In addition, the half-maximal inhibitory concentration (IC50) was determined as 0.41 µM with Hep 3B2 [1] and 42.2 µM in the assay on HepG2. The viability at 3 µM with Hep 3B2 [4] was found to be 59.7%.

Regarding `COc1c(-c2cc(O)c(O)c(CC=C(C)C)c2)oc2c(CC=C(C)C)c(O)cc(O)c2c1=O`, the Activity in the assay on Hep 3B2 [6] stood at 0.121%; in the assay with Hep 3B2 [8], 9.35%; with Hep 3B2 [9], 41.2%. In addition, the viability at 3 µM in the assay on Hep 3B2 [7] was determined as 49.3%. The 50% inhibitory concentration (IC50) amounted to 1.07 µM with Hep 3B2 [1] and 32.6 µM in the assay with HepG2.

In the case of `C=C(C)C(O)Cc1c(O)c(CC=C(C)C)c2oc(-c3ccc(O)c(O)c3)c(OC)c(=O)c2c1O` (centres undefined), the figures for the IC50 with Hep 3B2 [1] and in the assay on HepG2 were 37.1 µM and above 50 µM, respectively.

On to `CC(C)=CCc1cc(-c2oc3c(CC=C(C)C)c(O)cc(O)c3c(=O)c2O)ccc1O` [BROUSSOFLAVONOL F], for which the values for the Activity in the assay with Hep 3B2 [6], in the assay on Hep 3B2 [8] and in the assay with Hep 3B2 [9] were 0.251%, 25.5% and 19.1%, respectively. Further, in the assay with Hep 3B2 [7], the viability at 3 µM is 55.1%. The half-inhibitory concentration (IC50) in the assay with Hep 3B2 [1] was 1.15 µM; in the assay with HepG2, 30.8 µM.

As for `COc1c(-c2ccc(O)c(CC=C(C)C)c2)oc2cc(O)cc(O)c2c1=O`, the figures for the Activity in the assay on Hep 3B2 [2], in the assay with Hep 3B2 [3] and in the assay on Hep 3B2 [5] were 1.97%, 2.29% and 8.68%, respectively. Besides, the values for the IC50 in the assay with Hep 3B2 [1] and with HepG2 were 0.99 µM and 50.5 µM, respectively. In addition, in the assay on Hep 3B2 [4], the viability at 3 µM amounted to 87.1%.

Regarding `COc1c(-c2ccc(O)c(O)c2)oc2c3c(c(CC=C(C)C)c(O)c2c1=O)OC(C(C)(C)O)C3` (centres undefined), the IC50 in the assay with Hep 3B2 [1] was 8.89 µM; in the assay on HepG2 it was 26.9 µM.

`COc1c(-c2ccc(O)c(O)c2)oc2c(C/C=C(\C)CCC=C(C)C)c(O)cc(O)c2c1=O`: the values for the 50% inhibitory concentration (IC50) with Hep 3B2 [1] and in the assay on HepG2 were 4.8 µM and 30.4 µM, respectively.

As for `CC(C)=CCc1cc([C@H]2Oc3cc(O)ccc3C[C@H]2O)cc(CC=C(C)C)c1O`, the half-maximal inhibitory concentration (IC50) in the assay on Hep 3B2 [1] and in the assay on HepG2 was above 50 µM each time.

Take `COc1c(-c2cc(O)c(O)c(CC=C(C)C)c2CC=C(C)C)oc2cc(O)cc(O)c2c1=O`: the IC50 stood at 33.5 µM with Hep 3B2 [1] and 39.1 µM in the assay with HepG2.

As for `CC1(C)C=Cc2cc(-c3oc4cc(O)cc(O)c4c(=O)c3O)cc(O)c2O1`, the IC50 in the assay on Hep 3B2 [1] is 28.2 µM; with HepG2 it was above 50 µM.

Turning to `COc1c(-c2cc3c(c(O)c2CC=C(C)C)OC(C)(C)C=C3)oc2c(CC=C(C)C)c(O)cc(O)c2c1=O`, the IC50 turned out to be 6.37 µM in the assay with Hep 3B2 [1] and 30.7 µM in the assay with HepG2.

Take `COc1c(-c2ccc(O)c(O)c2)oc2c(CC=C(C)C)c(O)c(CC=C(C)C)c(O)c2c1=O`: the values for the half-inhibitory concentration (IC50) in the assay on Hep 3B2 [1] and with HepG2 were 17.7 µM and 43.3 µM, respectively.

Turning to `CC(C)=CCc1cc([C@H]2Oc3c(CC=C(C)C)c(O)cc(O)c3C(=O)[C@@H]2O)cc(CC=C(C)C)c1O`, the 50% inhibitory concentration (IC50) in the assay with Hep 3B2 [1] and in the assay with HepG2 was above 50 µM in each case.

As to `C=C(C)C(O)Cc1cc(-c2oc3c(CC=C(C)C)c(O)cc(O)c3c(=O)c2OC)cc(O)c1O` (centres undefined), the Activity in the assay on Hep 3B2 [2] was 6.97%; with Hep 3B2 [3], 2.75%; in the assay on Hep 3B2 [5], 76%. The IC50 in the assay on Hep 3B2 [1] was 1.05 µM; with HepG2 it was above 50 µM. The viability at 3 µM in the assay with Hep 3B2 [4] is 14.2%.

As to `COC1=C(c2ccc(O)cc2)Oc2c(CC=C(C)C)c(O)cc(O)c2C1O` (centres undefined), the half-inhibitory concentration (IC50) was found to be 3.96 µM in the assay on Hep 3B2 [1] and 13.6 µM in the assay on HepG2.

For `COc1c(-c2ccc(O)c(CC=C(C)C)c2)oc2c(CC=C(C)C)c(O)cc(O)c2c1=O`, the Activity in the assay on Hep 3B2 [6] was 0.097%; with Hep 3B2 [8] it was 10.7%; in the assay on Hep 3B2 [9] it was 37.4%. In addition, the viability at 3 µM with Hep 3B2 [7] was determined as 51.9%. Further, the half-maximal inhibitory concentration (IC50) is 2.31 µM in the assay on Hep 3B2 [1] and above 50 µM in the assay with HepG2.

For the compound `COc1c(-c2cc(O)c3c(c2)CC(C(C)(C)O)O3)oc2c(CC=C(C)C)c(O)cc(O)c2c1=O` (centres undefined), the Activity amounted to 15.4% in the assay on Hep 3B2 [2], 2.55% in the assay with Hep 3B2 [3] and 48.2% with Hep 3B2 [5]. Also, the IC50 worked out at 0.49 µM with Hep 3B2 [1] and 47.4 µM with HepG2. Also, the viability at 3 µM with Hep 3B2 [4] was 33.8%.

`COc1c(-c2cc(O)c(O)c(CC=C(C)C)c2)oc2c3c(cc(O)c2c1=O)OC(C(C)(C)O)C3` (centres undefined): the IC50 with Hep 3B2 [1] was 3.62 µM; with HepG2, above 50 µM.

Consider `CC(C)=CCc1cc(-c2oc3cc(O)cc(O)c3c(=O)c2O)ccc1O` [ISOLICOFLAVONOL], for which the 50% inhibitory concentration (IC50) in the assay on Hep 3B2 [1] was 11.5 µM; in the assay with HepG2, 44.7 µM.

The record behind these values is ChEMBL document CHEMBL5352479, “Prenylated flavonoids with significant anti-hepatoma activity from Daphne giraldii and effects on Fibroblast Growth Factor Receptor 1 (FGFR1)” (Eur J Med Chem, 2023).
